# Measurements: the kinase profiling compilation of Christmann-Franck et al. (2016)
# How the values were obtained:
# Assay in all cases: KINOMEscan competition binding
# Settings in all cases: compound 1.0 µM
# LRRK2 (human) = LRRK2 (human) (UniProt Q5S007)
# AXL (human) = AXL (human) (UniProt P30530)
# PLK2 (human) = PLK2 (human) (UniProt Q9NYY3)
# PRKCE (human) = PRKCE (human) (UniProt Q02156)
# EPHA2 (human) = EPHA2 (human) (UniProt P29317)
# MAPK4 (human) = MAPK4 (human) (UniProt P31152)
# HUNK (human) = HUNK (human) (UniProt P57058)
# [1] = test system: EGFR (human), P00533 [L858R]
# AURKB (human) = AURKB (human) (UniProt Q96GD4)
# EPHA6 (human) = EPHA6 (human) (UniProt Q9UF33)
# BMPR1B (human) = BMPR1B (human) (UniProt O00238)
# DSTYK (human) = DSTYK (human) (UniProt Q6XUX3)
# Sequence of DSTYK (human) (Q6XUX3 whole entry, looked up): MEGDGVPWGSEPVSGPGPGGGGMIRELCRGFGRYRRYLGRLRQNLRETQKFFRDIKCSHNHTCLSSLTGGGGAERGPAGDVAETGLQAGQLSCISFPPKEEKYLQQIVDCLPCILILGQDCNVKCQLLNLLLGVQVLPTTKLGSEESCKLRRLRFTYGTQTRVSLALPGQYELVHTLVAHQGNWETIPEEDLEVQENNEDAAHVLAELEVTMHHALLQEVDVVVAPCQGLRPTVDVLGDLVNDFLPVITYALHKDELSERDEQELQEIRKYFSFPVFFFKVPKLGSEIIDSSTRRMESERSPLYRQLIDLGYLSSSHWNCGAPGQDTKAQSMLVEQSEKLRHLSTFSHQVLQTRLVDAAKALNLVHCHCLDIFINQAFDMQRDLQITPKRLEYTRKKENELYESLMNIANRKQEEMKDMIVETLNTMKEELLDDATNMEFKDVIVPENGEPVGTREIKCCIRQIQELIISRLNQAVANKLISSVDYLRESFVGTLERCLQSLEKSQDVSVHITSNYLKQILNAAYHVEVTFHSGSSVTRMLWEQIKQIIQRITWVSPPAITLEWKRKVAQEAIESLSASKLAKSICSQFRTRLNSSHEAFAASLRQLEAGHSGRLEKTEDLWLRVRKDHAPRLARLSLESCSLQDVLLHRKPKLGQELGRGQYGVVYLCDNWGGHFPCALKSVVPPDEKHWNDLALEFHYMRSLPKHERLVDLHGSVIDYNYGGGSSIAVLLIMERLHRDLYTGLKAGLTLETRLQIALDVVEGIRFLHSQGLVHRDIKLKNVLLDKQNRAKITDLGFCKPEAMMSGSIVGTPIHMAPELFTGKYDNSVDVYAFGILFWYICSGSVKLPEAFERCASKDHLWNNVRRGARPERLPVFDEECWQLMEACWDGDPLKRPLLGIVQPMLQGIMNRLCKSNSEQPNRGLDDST
# NEK4 (human) = NEK4 (human) (UniProt P51957)
# PRKAA2 (human) = PRKAA2 (human) (UniProt P54646)
# CDKL3 (human) = CDKL3 (human) (UniProt Q8IVW4)
# EGFR (human) = EGFR (human) (UniProt P00533)
# [2] = test system: FLT3 (human), P36888 [K663Q]
# FER (human) = FER (human) (UniProt P16591)
# Sequence of FER (human) (P16591 whole entry, looked up): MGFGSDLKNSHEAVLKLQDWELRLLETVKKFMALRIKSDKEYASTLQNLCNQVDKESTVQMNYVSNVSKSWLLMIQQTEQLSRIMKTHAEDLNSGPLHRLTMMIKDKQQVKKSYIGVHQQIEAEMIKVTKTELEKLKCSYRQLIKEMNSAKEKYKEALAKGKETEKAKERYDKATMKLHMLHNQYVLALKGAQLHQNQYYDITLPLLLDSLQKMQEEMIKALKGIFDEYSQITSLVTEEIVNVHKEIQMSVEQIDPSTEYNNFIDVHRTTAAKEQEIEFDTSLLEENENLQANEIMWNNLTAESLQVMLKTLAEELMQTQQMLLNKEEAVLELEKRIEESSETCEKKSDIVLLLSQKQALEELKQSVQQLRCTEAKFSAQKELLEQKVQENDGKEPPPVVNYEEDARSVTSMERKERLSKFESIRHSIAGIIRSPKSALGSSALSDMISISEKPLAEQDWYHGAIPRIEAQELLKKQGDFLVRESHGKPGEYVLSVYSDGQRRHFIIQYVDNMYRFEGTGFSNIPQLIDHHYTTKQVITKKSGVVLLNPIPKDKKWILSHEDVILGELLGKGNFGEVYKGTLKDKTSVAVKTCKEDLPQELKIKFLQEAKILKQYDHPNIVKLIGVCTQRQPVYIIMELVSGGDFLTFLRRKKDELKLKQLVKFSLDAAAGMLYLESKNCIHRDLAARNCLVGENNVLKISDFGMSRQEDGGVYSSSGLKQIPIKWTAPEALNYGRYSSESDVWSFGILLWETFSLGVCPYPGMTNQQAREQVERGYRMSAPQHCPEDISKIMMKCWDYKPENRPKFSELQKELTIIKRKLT
# PIK3C2B (human) = PIK3C2B (human) (UniProt O00750)
# MAP4K3 (human) = MAP4K3 (human) (UniProt Q8IVH8)
# ROCK2 (human) = ROCK2 (human) (UniProt O75116)
# Sequence of ROCK2 (human) (O75116 whole entry, looked up): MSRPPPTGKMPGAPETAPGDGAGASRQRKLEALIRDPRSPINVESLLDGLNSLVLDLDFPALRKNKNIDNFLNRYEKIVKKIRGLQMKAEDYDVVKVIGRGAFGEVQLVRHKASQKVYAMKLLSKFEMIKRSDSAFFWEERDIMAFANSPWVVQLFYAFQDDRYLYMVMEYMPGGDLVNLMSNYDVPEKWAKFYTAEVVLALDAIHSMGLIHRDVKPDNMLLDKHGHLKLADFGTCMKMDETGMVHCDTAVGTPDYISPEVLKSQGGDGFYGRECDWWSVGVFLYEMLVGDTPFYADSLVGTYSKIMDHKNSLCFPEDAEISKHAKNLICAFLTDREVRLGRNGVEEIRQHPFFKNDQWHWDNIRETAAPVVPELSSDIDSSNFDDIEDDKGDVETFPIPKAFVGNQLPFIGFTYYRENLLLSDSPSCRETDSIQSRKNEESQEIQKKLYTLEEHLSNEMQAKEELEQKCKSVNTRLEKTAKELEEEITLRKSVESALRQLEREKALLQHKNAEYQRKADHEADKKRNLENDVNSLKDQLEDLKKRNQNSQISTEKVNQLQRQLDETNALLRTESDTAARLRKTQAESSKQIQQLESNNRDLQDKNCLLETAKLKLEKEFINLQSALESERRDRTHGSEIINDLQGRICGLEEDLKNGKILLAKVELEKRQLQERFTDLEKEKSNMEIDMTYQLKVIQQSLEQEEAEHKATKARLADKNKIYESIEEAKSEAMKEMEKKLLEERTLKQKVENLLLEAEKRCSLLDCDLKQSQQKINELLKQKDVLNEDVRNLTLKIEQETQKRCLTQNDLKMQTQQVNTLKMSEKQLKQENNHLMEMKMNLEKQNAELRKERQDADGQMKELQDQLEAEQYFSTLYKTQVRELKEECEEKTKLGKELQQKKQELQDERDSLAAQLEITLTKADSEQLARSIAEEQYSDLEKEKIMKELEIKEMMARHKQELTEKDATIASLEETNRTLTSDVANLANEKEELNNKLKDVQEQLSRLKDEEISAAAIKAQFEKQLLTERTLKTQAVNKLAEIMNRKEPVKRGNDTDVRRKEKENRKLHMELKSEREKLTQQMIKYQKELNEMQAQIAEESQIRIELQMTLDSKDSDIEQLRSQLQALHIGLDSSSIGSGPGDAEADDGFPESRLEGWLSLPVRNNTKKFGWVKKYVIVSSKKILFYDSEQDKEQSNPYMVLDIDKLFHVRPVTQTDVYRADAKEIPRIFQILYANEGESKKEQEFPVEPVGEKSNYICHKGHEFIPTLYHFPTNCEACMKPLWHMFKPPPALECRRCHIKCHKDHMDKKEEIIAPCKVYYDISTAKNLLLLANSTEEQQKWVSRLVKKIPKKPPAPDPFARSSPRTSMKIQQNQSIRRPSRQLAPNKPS
# NEK5 (human) = NEK5 (human) (UniProt Q6P3R8)
# AURKA (human) = AURKA (human) (UniProt O14965)
# NEK6 (human) = NEK6 (human) (UniProt Q9HC98)
# Sequence of NEK6 (human) (Q9HC98 whole entry, looked up): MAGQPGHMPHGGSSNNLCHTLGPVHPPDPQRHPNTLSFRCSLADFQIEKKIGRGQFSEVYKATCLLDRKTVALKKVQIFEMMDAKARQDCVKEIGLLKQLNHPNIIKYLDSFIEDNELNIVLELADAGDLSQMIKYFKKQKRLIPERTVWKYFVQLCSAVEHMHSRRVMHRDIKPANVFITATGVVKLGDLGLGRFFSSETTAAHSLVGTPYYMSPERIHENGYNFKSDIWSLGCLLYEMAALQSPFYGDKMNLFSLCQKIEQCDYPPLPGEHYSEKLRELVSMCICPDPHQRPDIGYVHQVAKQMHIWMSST
# [3] = test system: KIT (human), P10721 [A829P]
# Sequence of KIT (human), P10721 [A829P] (P10721 whole entry A829P, looked up): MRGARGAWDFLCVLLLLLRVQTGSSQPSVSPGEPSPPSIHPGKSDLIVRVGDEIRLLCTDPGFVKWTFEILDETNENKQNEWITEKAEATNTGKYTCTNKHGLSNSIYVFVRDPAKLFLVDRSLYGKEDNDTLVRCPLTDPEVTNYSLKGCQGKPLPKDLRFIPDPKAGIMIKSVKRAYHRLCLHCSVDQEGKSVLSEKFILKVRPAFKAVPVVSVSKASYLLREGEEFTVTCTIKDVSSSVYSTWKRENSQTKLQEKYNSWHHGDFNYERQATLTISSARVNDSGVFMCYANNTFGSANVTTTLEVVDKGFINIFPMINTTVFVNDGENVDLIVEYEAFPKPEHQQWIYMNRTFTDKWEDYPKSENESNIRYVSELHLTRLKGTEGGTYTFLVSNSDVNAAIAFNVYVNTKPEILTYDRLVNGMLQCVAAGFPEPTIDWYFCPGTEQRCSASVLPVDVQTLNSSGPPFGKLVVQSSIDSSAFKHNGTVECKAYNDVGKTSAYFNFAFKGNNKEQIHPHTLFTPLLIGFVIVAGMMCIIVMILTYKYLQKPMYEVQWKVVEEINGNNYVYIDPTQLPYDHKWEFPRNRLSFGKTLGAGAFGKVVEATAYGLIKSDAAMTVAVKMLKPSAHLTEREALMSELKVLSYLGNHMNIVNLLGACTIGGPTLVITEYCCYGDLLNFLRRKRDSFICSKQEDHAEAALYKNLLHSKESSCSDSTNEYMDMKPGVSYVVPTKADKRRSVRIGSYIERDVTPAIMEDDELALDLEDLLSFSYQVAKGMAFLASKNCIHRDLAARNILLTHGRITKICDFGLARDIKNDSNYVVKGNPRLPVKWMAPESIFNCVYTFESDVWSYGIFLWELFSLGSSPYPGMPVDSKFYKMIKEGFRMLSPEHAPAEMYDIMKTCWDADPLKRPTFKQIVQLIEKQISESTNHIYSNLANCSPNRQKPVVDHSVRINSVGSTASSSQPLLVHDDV
# PKN1 (human) = PKN1 (human) (UniProt Q16512)
# TLK2 (human) = TLK2 (human) (UniProt Q86UE8)
# DCLK1 (human) = DCLK1 (human) (UniProt O15075)
# [4] = target: TYK2 JH1 catalytic (human) (UniProt P29597)
# RPS6KA1 KD2 (human) = RPS6KA1 KD2 (human) (UniProt Q15418)
# STK32C (human) = STK32C (human) (UniProt Q86UX6)
# AKT1 (human) = AKT1 (human) (UniProt P31749)
# MAP3K10 (human) = MAP3K10 (human) (UniProt Q02779)
# MAP2K1 (human) = MAP2K1 (human) (UniProt Q02750)
# TNK1 (human) = TNK1 (human) (UniProt Q13470)
# Sequence of TNK1 (human) (Q13470 whole entry, looked up): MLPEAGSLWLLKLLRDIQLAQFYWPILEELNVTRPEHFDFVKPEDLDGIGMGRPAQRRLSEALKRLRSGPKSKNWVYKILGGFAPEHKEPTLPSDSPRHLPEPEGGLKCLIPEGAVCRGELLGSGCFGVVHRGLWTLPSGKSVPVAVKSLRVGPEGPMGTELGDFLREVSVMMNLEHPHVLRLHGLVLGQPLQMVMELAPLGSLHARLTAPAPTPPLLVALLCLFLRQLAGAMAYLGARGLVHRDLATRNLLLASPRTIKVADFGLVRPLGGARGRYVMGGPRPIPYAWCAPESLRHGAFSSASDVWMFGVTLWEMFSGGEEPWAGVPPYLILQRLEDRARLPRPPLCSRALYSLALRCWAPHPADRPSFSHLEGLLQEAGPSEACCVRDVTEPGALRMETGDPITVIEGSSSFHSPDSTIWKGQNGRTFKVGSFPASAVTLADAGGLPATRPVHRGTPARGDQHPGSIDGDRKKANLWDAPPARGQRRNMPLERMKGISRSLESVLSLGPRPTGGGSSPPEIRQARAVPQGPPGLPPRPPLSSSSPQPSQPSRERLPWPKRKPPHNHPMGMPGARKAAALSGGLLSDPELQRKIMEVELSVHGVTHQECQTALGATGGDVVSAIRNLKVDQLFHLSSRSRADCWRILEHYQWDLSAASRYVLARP
# [5] = test system: ABL1 (human), P00519 [Y253F]
# ABL2 (human) = ABL2 (human) (UniProt P42684)
# RIPK2 (human) = RIPK2 (human) (UniProt O43353)
# MYLK4 (human) = MYLK4 (human) (UniProt Q86YV6)
# DDR2 (human) = DDR2 (human) (UniProt Q16832)
# DDR1 (human) = DDR1 (human) (UniProt Q08345)
# MELK (human) = MELK (human) (UniProt Q14680)
# [6] = test system: EGFR (human), P00533 [T790M/L858R]
smiles,measurement,setting,value
COCCNCCCn1c(C(=O)CF)c(-c2ccc(C)cc2)c2c(N)ncnc21,"kinase still bound, per cent of control",LRRK2 (human),100%
same,"kinase still bound, per cent of control",AXL (human),81%
same,"kinase still bound, per cent of control",PLK2 (human),96%
same,"kinase still bound, per cent of control",PRKCE (human),100%
same,"kinase still bound, per cent of control",EPHA2 (human),100%
same,"kinase still bound, per cent of control",MAPK4 (human),100%
same,"kinase still bound, per cent of control",HUNK (human),100%
same,"kinase still bound, per cent of control",[1],62%
same,"kinase still bound, per cent of control",AURKB (human),62%
same,"kinase still bound, per cent of control",EPHA6 (human),82%
same,"kinase still bound, per cent of control",BMPR1B (human),85%
same,"kinase still bound, per cent of control",DSTYK (human),100%
same,"kinase still bound, per cent of control",NEK4 (human),100%
same,"kinase still bound, per cent of control",PRKAA2 (human),75%
same,"kinase still bound, per cent of control",CDKL3 (human),88%
same,"kinase still bound, per cent of control",EGFR (human),96%
same,"kinase still bound, per cent of control",[2],100%
same,"kinase still bound, per cent of control",FER (human),84%
same,"kinase still bound, per cent of control",PIK3C2B (human),100%
same,"kinase still bound, per cent of control",MAP4K3 (human),100%
same,"kinase still bound, per cent of control",ROCK2 (human),94%
same,"kinase still bound, per cent of control",NEK5 (human),100%
same,"kinase still bound, per cent of control",AURKA (human),92%
same,"kinase still bound, per cent of control",NEK6 (human),100%
same,"kinase still bound, per cent of control",[3],85%
same,"kinase still bound, per cent of control",PKN1 (human),100%
same,"kinase still bound, per cent of control",TLK2 (human),95%
same,"kinase still bound, per cent of control",DCLK1 (human),100%
same,"kinase still bound, per cent of control",[4],100%
same,"kinase still bound, per cent of control",RPS6KA1 KD2 (human),31%
same,"kinase still bound, per cent of control",STK32C (human),100%
same,"kinase still bound, per cent of control",AKT1 (human),100%
same,"kinase still bound, per cent of control",MAP3K10 (human),77%
same,"kinase still bound, per cent of control",MAP2K1 (human),100%
same,"kinase still bound, per cent of control",TNK1 (human),100%
same,"kinase still bound, per cent of control",[5],94%
same,"kinase still bound, per cent of control",ABL2 (human),100%
same,"kinase still bound, per cent of control",RIPK2 (human),39%
same,"kinase still bound, per cent of control",MYLK4 (human),86%
same,"kinase still bound, per cent of control",DDR2 (human),99%
same,"kinase still bound, per cent of control",DDR1 (human),100%
same,"kinase still bound, per cent of control",MELK (human),95%
same,"kinase still bound, per cent of control",[6],100%
